Data on 72 compounds can be found in ChEMBL document CHEMBL2057073, “Synthesis and structure-activity relationship studies of 1,3-disubstituted 2-propanols as BACE-1 inhibitors” (Bioorg Med Chem Lett, 2012).

Molecules are shown by their SMILES.

In the experiment the target is Beta-secretase 1 (Homo sapiens, UniProt P56817). The experiment can be described thus: Inhibition of BACE1 at 100 uM by FRET assay.
Chain of Beta-secretase 1 (P56817 whole entry): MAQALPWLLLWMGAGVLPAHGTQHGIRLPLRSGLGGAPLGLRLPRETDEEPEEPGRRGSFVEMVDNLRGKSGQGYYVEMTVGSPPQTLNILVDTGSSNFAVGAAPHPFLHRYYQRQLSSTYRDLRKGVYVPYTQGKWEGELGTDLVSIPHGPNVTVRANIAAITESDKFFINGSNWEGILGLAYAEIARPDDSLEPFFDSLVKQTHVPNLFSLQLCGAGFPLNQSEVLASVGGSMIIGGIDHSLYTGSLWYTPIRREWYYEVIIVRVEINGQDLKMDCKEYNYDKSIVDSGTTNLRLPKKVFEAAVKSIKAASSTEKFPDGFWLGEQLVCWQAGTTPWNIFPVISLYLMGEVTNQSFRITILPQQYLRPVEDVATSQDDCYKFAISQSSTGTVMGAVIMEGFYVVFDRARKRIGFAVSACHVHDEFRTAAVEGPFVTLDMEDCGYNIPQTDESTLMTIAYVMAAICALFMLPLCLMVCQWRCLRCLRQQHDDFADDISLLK
In the case of `OC(CSc1nnnn1-c1ccccc1)CN(Cc1ccccc1)Cc1ccccc1` (configuration not stated), the inhibition (usually the share of the control response that was lost under treatment) amounted to 0%. The figure for `CCc1ccc(SCC(O)Cn2ccc3ccccc32)cc1` (configuration not stated) is 72%.

Turning to `Cc1cc(C)cc(SCC(O)CN2CCCCCC2)c1` (configuration not stated), the inhibition was 15%. The figure for `COc1ccc(SCC(O)CN(Cc2ccccc2)Cc2ccccc2)cc1` (configuration not stated) is 10%; for `COc1ccc(SCC(O)COc2ccc(-c3ccccc3)cc2)cc1` (configuration not stated) it is 45%.

In the case of `Cc1c(C)n(CC(O)CSc2cccc(N)c2)c2ccccc12` (configuration not stated), the inhibition turned out to be 55%. `COc1ccc(SCC(O)Cn2c3c(c4ccccc42)CCCC3)c(OC)c1` (configuration not stated) displayed an inhibition of 74%. Turning to `Cc1c(C)n(CC(O)CSc2ccc(O)cc2)c2ccccc12` (configuration not stated), the inhibition amounted to 75%.

The compound `Cc1ccccc1SCC(O)COc1ccc(-c2ccccc2)cc1` (configuration not stated) came in with an inhibition of 74%. To `OC(CSc1ccccc1Cl)CN1CCC(C(O)(c2ccccc2)c2ccccc2)CC1` (configuration not stated) belongs 5%; to `CCc1cccc2ccn(CC(O)CSCCCc3ccccc3)c12` (configuration not stated), 0%; to `COc1cc2c(cc1OC)C(c1ccccc1)N(CC(O)CSc1ccc(Cl)cc1)CC2` (configuration not stated), 3%. The figure for `COc1ccc(SCC(O)Cn2c(-c3ccccc3)cc3ccccc32)cc1` (configuration not stated) is 70%; for `COc1cc2c(cc1OC)C(c1ccccc1)N(CC(O)CSc1ccccc1C)CC2` (configuration not stated) it is 24%. Take `OC(CSc1ccc(Cl)cc1)CN1CCC(C(O)(c2ccccc2)c2ccccc2)CC1` (configuration not stated): the inhibition came out at 10%. The figure for `Nc1cccc(SCC(O)Cn2c(-c3ccccc3)cc3ccccc32)c1` (configuration not stated) is 73%; for `COc1ccc(SCC(O)Cn2c3c(c4ccccc42)CCC3)c(OC)c1` (configuration not stated) it is 75%; for `OC(CSc1ccccc1F)CN(Cc1ccccc1)Cc1ccccc1` (configuration not stated) it is 1%. For `COc1ccc(SCC(O)CN2CCc3cc(OC)c(OC)cc3C2c2ccccc2)cc1` (configuration not stated), the inhibition was determined as 20%. `Oc1ccccc1SCC(O)CN1CCC(C(O)(c2ccccc2)c2ccccc2)CC1` (configuration not stated) gave an inhibition of 3%.

`COc1cc2c(cc1OC)C(c1ccccc1)N(CC(O)CSc1ccccc1F)CC2` (configuration not stated) registered an inhibition of 23%. To `COc1ccc(SCC(O)COc2ccc(Cc3ccccc3)cc2)cc1` (configuration not stated) belongs 48%; to `Cc1ccc(SCC(O)CN(Cc2ccccc2)Cc2ccccc2)cc1` (configuration not stated), 7%. Consider `CCc1ccccc1SCC(O)COc1ccc(Cc2ccccc2)cc1` (configuration not stated), for which the inhibition was found to be 71%.

As for `OC(COc1ccc(Cc2ccccc2)cc1)CSc1ccc(Cl)cc1` (configuration not stated), the inhibition worked out at 63%. To `COc1ccc(SCC(O)COc2ccc(-c3ccccc3)cc2)c(OC)c1` (configuration not stated) belongs 74%; to `COc1ccc(SCC(O)CN2CCC(C(O)(c3ccccc3)c3ccccc3)CC2)cc1` (configuration not stated), 0%; to `Cc1cc(C)cc(SCC(O)CN(Cc2ccccc2)Cc2ccccc2)c1` (configuration not stated), 38%. To `Cc1c(C)n(CC(O)CSc2ccccc2F)c2ccccc12` (configuration not stated) belongs 56%; to `OC(COc1ccc(Cc2ccccc2)cc1)CSc1ccc(F)cc1` (configuration not stated), 62%; to `CCc1ccc(SCC(O)COc2ccc(Cc3ccccc3)cc2)cc1` (configuration not stated), 69%. The figure for `OC(CSc1ccccc1)CN1CCCCCC1` (configuration not stated) is 2%; for `OC(CSc1ccccc1)CN(Cc1ccccc1)Cc1ccccc1` (configuration not stated) it is 0%.

`Cc1ccccc1SCC(O)Cn1c(-c2ccccc2)cc2ccccc21` (configuration not stated) returned an inhibition of 67%. Consider `OC(CSc1ccc2ccccc2c1)CN(Cc1ccccc1)Cc1ccccc1` (configuration not stated), for which the inhibition amounted to 19%. To `COc1ccc(SCC(O)CN(Cc2ccccc2)Cc2ccccc2)c(OC)c1` (configuration not stated) belongs 34%. The figure for `CCc1ccccc1SCC(O)CN1CCC(C(O)(c2ccccc2)c2ccccc2)CC1` (configuration not stated) is 3%; for `OC(CSc1ccccc1F)CN1CCC(C(O)(c2ccccc2)c2ccccc2)CC1` (configuration not stated) it is 8%; for `OC(COc1ccc(-c2ccccc2)cc1)CSc1nnnn1-c1ccccc1` (configuration not stated) it is 71%. Turning to `OC(CSCCCc1ccccc1)CN(Cc1ccccc1)Cc1ccccc1` (configuration not stated), the inhibition was 16%. To `Oc1ccc(SCC(O)CN2CCC(C(O)(c3ccccc3)c3ccccc3)CC2)cc1` (configuration not stated) belongs 0%; to `COc1cc2c(cc1OC)C(c1ccccc1)N(CC(O)CSc1nnnn1-c1ccccc1)CC2` (configuration not stated), 45%. To `Cc1cc(C)cc(SCC(O)COc2ccc(Cc3ccccc3)cc2)c1` (configuration not stated) belongs 71%; to `OC(CSc1ccccc1Cl)CN(Cc1ccccc1)Cc1ccccc1` (configuration not stated), 45%. `Cc1cc(C)cc(SCC(O)CN2CCC(C(O)(c3ccccc3)c3ccccc3)CC2)c1` (configuration not stated) displayed an inhibition of 0%. As for `CCc1ccccc1SCC(O)CN1CCc2cc(OC)c(OC)cc2C1c1ccccc1` (configuration not stated), the inhibition worked out at 1%. To `OC(CSc1ccc2ccccc2c1)CN1CCCCCC1` (configuration not stated) belongs 0%; to `OC(CSc1ccc(Cl)cc1)CN1CCCCCC1` (configuration not stated), 0%; to `Cc1c(C)n(CC(O)CSc2ccccc2O)c2ccccc12` (configuration not stated), 61%.

Regarding `CCc1ccc(SCC(O)CN2CCc3cc(OC)c(OC)cc3C2c2ccccc2)cc1` (configuration not stated), the inhibition is 21%. Take `OC(CSc1ccc(F)cc1)CN1CCCCCC1` (configuration not stated): the inhibition came to 10%. `OC(CSc1ccc2ccccc2c1)CN1CCC(C(O)(c2ccccc2)c2ccccc2)CC1` (configuration not stated) showed an inhibition of 0%. The compound `OC(CSc1nnnn1-c1ccccc1)CN1CCC(C(O)(c2ccccc2)c2ccccc2)CC1` (configuration not stated) came in with an inhibition of 1%. In turn, `Oc1ccccc1SCC(O)CN(Cc1ccccc1)Cc1ccccc1` (configuration not stated) yielded an inhibition of 2%. `COc1cc2c(cc1OC)C(c1ccccc1)N(CC(O)CSc1cc(C)cc(C)c1)CC2` (configuration not stated) displayed an inhibition of 15%. The figure for `CCc1cccc2ccn(CC(O)CSc3ccccc3O)c12` (configuration not stated) is 32%; for `COc1ccc(SCC(O)COc2ccc(Cc3ccccc3)cc2)c(OC)c1` (configuration not stated) it is 67%. To `OC(CSc1nnnn1-c1ccccc1)Cn1ccc2ccccc21` (configuration not stated) belongs 58%; to `Oc1ccccc1SCC(O)Cn1ccc2ccccc21` (configuration not stated), 24%; to `OC(CSc1ccc(F)cc1)CN(Cc1ccccc1)Cc1ccccc1` (configuration not stated), 2%. To `OC(CSc1ccccc1)CN1CCC(C(O)(c2ccccc2)c2ccccc2)CC1` (configuration not stated) belongs 2%; to `CCc1ccc(SCC(O)CN2CCC(C(O)(c3ccccc3)c3ccccc3)CC2)cc1` (configuration not stated), 1%. As to `OC(CSc1ccc(Cl)cc1)CN(Cc1ccccc1)Cc1ccccc1` (configuration not stated), the inhibition was 24%. The compound `COc1ccc(SCC(O)CN2CCC(C(O)(c3ccccc3)c3ccccc3)CC2)c(OC)c1` (configuration not stated) had an inhibition of 0%.

Compound `Cc1c(C)n(CC(O)CSc2ccccc2)c2ccccc12` (configuration not stated) yielded an inhibition of 69%. The figure for `OC(CSc1nnnn1-c1ccccc1)Cn1c(-c2ccccc2)cc2ccccc21` (configuration not stated) is 53%; for `COc1cc2c(cc1OC)C(c1ccccc1)N(CC(O)CSc1ccc(F)cc1)CC2` (configuration not stated) it is 15%; for `Oc1ccc(SCC(O)COc2ccc(-c3ccccc3)cc2)cc1` (configuration not stated) it is 17%. `Cc1ccc(SCC(O)COc2ccc(-c3ccccc3)cc2)cc1` (configuration not stated) had an inhibition of 27%. In turn, `CCc1cccc2ccn(CC(O)CSc3ccc(OC)cc3OC)c12` (configuration not stated) registered an inhibition of 69%. To `OC(COc1ccc(Cc2ccccc2)cc1)CSc1nnnn1-c1ccccc1` (configuration not stated) belongs 62%; to `OC(COc1ccc(Cc2ccccc2)cc1)CSc1ccccc1F` (configuration not stated), 64%.
